This is an account of results in patent publication US20020076693A1, “Novel cell surface receptor for HIV retroviruses, therapeutic and diagnostic uses” (priority 1997, published 2002).

By IC50 is commonly meant the concentration that inhibits the measured activity by half.

The test system of assay [1] is HIV-1 AZT resistant, Saquinavir resistant, Nevirapine resistant. The experiment in a line: Entry of HIV-1 isolates resistant to antiviral drugs into HeLa cells (β-galactosidase). The class given is cell-based. The following applies: heparin 5 mg/ml. On the procedure: HIV entry and replication, results in the activation of the HIV LTR, leading to the expression of the lacZ gene. Therefore, at 24 and 48 hours post-infection, the β-galactosidase activity could be measured in cell extracts directly. Consequently, this latter technique could be used to monitor HIV entry into cells. The HIV dose used corresponded to the amount of virus containing 20-40 ng/ml of p24.
In these experiments, the background values of the β-galactosidase activity were assesed by the samples incubated with the a-CD4 mAb. Furthermore, the effect of heparin (5 mg/ml) was investigated.

A further assay deals with CD4^+ CEM cells. As to the kind of experiment: Binding of 125I-labeled gp120 to CEM cells. More on the design: species or system human. On the procedure:
A. The binding of ^125I-labeled gp120 to CEM cells. […] The cells were then washed as described in “Materials and Methods” and processed for analysis of the bound gp120.
Recombinant gp120 (Neosystem, Strasbourg, France) was radioiodinated with the Bolton-Hunter reagent (New England Nuclear-Du Pont, Boston, Mass.) according to the technique described by the manufacturer. To study the binding of gp120 to the CD4 receptor, CEM cells (5×10^6) which express high levels of CD4 were incubated in the culture medium with ^125I-labeled gp120 (50 ng; 10 Ci/mg) at 37° C. for 1 hour. Cells were then washed twice in PBS (5 ml) and cytoplasmic extracts were prepared by disruption of cell pellets in buffer E ([…]). Aliquots ([…]; corresponding to material from 10^6 cells) were diluted in two-fold concentrated electrophoresis buffer and were analyzed by SDS/PAGE. […] The ^125I-labeled gp120 band was also quantitated in a Phosphorimager (Molecular Dynamics, Sunnyvale, Calif.).

The next assay concerns the target P40/PHAPII (Homo sapiens, UniProt Q01105). The experiment in a line: Saturation of binding sites of P40/PHAPII.
For another assay, the target named is cell-surface P95 (Homo sapiens, UniProt P19338). As to the kind of experiment: Recovery of cell-surface P95 complexed to biotin-labeled 5[Kψ(CH2N)PR]-TASP, competition by unlabeled constructs. The settings on record: 50 μM unlabeled, 5 μM biotin-labeled 5[Kψ(CH2N)PR]-TASP.
Chain of cell-surface P95 (P19338 whole entry): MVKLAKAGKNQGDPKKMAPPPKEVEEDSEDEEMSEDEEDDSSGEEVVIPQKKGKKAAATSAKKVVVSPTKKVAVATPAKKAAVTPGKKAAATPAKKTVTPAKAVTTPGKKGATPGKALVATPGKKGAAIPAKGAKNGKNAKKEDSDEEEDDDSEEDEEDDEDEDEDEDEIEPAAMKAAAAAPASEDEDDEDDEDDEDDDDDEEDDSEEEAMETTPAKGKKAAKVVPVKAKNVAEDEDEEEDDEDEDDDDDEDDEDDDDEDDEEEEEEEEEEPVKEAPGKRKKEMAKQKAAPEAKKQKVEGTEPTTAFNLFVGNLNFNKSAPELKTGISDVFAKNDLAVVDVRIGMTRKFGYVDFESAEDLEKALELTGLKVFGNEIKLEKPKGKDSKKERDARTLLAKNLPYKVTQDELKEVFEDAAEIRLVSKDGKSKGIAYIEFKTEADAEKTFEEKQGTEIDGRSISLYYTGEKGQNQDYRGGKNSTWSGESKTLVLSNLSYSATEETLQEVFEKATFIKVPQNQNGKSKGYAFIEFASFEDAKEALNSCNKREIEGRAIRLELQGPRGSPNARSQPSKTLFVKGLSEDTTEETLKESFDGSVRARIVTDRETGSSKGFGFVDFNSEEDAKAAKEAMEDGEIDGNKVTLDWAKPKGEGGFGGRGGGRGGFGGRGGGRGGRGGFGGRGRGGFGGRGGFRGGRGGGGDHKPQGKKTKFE
The target of another assay is P30/PHAPI (Homo sapiens, UniProt P39687). The experiment in a line: Saturation of binding sites of P30/PHAPI.
Chain of P30/PHAPI (P39687 whole entry): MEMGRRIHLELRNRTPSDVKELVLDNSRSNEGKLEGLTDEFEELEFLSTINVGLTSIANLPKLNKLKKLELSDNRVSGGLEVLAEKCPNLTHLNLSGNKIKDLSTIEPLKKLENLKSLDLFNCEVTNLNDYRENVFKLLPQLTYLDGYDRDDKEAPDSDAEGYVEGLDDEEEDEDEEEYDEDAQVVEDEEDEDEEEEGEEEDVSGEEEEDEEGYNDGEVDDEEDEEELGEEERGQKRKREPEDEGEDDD
A further assay concerns MOLT4 cells. The experiment in a line: FACS binding of FITC-labeled TASP after protease treatment of cells. More on the design: species or system human. As to the method: The cells were then washed twice with FACS buffer and fixed in 1% formaldehyde in FACS buffer. […] The fluorescence intensity was monitored by FACS analysis using Lysis II Software in FIGS. 3/4 and Tables 1/2, or Cell Quest™ Software (Beckton Dickinson and Apple Computer) in FIG. 5 +L.
Protease treatment of CEM and MOLT cells was essentially as described previously (Borrow et al., 1992) with slight modifications. Briefly, cells were washed in PBS and in RPMI-1640 medium containing 1 mM EDTA before treatment with trypsin (Sigma; 2.5 mg/ml at 20° C. for 5 min), proteinase K (Bohringer Mannhein GmbH, Germany; 0.2 mg/ml at 37° C. for 30 min), or pronase E (Sigma, 0.1 mg/ml at 37° C. for 45 min). The reactions were stopped by 10 fold dilutions in RPMI-1640 containing 10% fetal calf serum. Cells were then washed in PBS and in FACS buffer, and processed for FACS analysis.
The expression of CD4 and CD26 in control cells (not treated with different proteases) was considered as 100%. Consequently the % positive cells after protease treatment were estimated by comparison with the untreated cells.
On the technique in general: A flow cytometer gives signals particle by particle.

For another assay, the system named is HIV-1 Lai. The experiment in a line: Inhibition of HIV-1 Lai infection of CEM cells (p24 production). The class given is cell-based. As to the method:
Infection of CEM cells with the HIV-1 Lai isolate was carried out as described previously (Callebaut et al., 1996). For the assay of the inhibitory effect of rabbit antisera or purified antibodies, CEM cells were first incubated (15-30 min, at room temperature) in the presence of different concentrations of each antibody preparation before infection using 0.2 synchronous dose of HIV-1 Lai as described before (Laurent-Crawford and Hovanessian, 1993). HIV production was estimated at different days post-infection (p.i.) by monitoring the HIV-1 major core protein p24 in the culture supernatant (Callebaut et al., 1996). The concentration of p24 was measured by p24 Core Profile ELISA (Du Pont). For a single cycle of HIV, AZT ([…]) was added at 8 hr post-infection to inhibit multiple cycles of virus infection; HIV production was monitored at 4 days post-infection (Laurent-Crawford and Hovanessian, 1993).

A further assay relates to HIV-1 JRCSF. As to the kind of experiment: HIV entry into HeLa P4-C5 cells (β-galactosidase), HIV-1 JRCSF. The class given is cell-based. The settings on record: HeLa P4-C5, HIV-1 JRCSF; read-out: IC50, inhibition of HIV entry.
A further assay has as its system SIVmac. As to the kind of experiment: SIVmac entry into HeLa cells (β-galactosidase). The settings on record: β-galactosidase at 48 hours. The class given is cell-based, SIV.
In a further assay the test system is HIV-1 Ada-M. The experiment in a line: HIV-1 Ada-M entry into HeLa P4-C5 cells (β-galactosidase). The class given is cell-based. The settings on record: HeLa P4-C5, β-galactosidase at 48 hours. On the procedure: HeLa cells (P4-C5) were treated (incubation at 37° C., 30 min) with AZT (5 μM), (α-CD4 mAb CBT4 (5 μg/ml) before infection with the different HIV isolates in order to obtain the background β-galactosidase activity compared to untreated cells (Control). During the same time, the different HIV isolates were treated (incubation at room temperature, 15 min) with 1, 5, and 10 μg/ml of heparin before addition to untreated cells. The b-galactosidase activity was assayed at 48 hours post-infection as a measure of HIV entry (3 +L7).

Another assay has as its target CD4 (Homo sapiens, UniProt P01730). The experiment in a line: BIAcore biosensor binding to soluble CD4. The settings on record: binding protein soluble recombinant CD4, BIAcore.

“Also recorded” adds a separate entry of the source.

Chain of P40/PHAPII (Q01105 1-277 isoform Q01105-2): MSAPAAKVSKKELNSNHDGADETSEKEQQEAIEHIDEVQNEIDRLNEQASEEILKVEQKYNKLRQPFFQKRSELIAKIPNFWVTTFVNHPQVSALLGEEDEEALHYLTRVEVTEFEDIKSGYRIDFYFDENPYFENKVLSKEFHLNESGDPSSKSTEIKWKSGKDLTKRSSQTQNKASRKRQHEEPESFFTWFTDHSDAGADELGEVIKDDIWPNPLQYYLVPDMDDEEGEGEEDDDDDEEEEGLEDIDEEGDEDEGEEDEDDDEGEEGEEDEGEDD
Protocol for cell-surface P95: Cells were then washed extensively before preparation of cell extracts. The complexes formed between the biotin-labeled TASP constructs and any cell-surface protein were then recovered by purification using avidin-agarose (“Materials and Methods”). […] Lane 1 “Extract” represents the ligand blot analysis of crude CEM cell extracts; material corresponding to 10^6 cells.
Cells were then washed in FACS buffer (2×15 ml) and nucleus-free cell extracts were prepared using buffer E (150 ml). Such extracts were first diluted in PBS containing 1 mM EDTA (600 μl) before the addition of 100 μl avidin-agarose (ImmunoPure Immobilized Avidin from Pierce Chemical Company, U.S.A.) to capture the biotin-labeled TASP complexed to its cell surface ligand(s). These suspensions were incubated at 4° C. for 2 hr, and the avidin-agarose bound proteins were washed batchwise with PBS containing 1 mM EDTA (5×5 ml). Finally, the avidin-agarose pellet was resuspended in 100 ml of 2-fold concentrated electrophoresis sample buffer and heated at 95° C. for 5 min.

On to 5[Kψ(CH2N)PR]-TASP, for which the “effect on entry of drug-resistant HIV-1 isolates” value in assay [1] is listed as “Inhibits Entry”. For the same substance, the “binding of 125I-labeled gp120 to CEM cells” value with CD4^+ CEM cells (20 mM of TASP) is given as “not affected”; in the assay on CD4^+ CEM cells (higher concentrations of TASP (40, 80 μM)) it was “slight inhibition”. The results for the “concentration for 100% saturation of the binding sites” value on P40/PHAPII and at P30/PHAPI were 4 µM and 8 µM, respectively. In addition, the “isolation of cell-surface P95 abolished by excess unlabeled construct” value at cell-surface P95 is on record as “completely abolished”. Besides, the “Cell-surface expression (% positive cells), TASP-Ligand” value with MOLT4 cells (after Pronase E treatment) was 8%; in the assay with MOLT4 cells (after Proteinase K treatment), 15%; with MOLT4 cells (after Trypsin treatment), 92%. For the same substance, the “inhibition of virus production” value in the assay on HIV-1 Lai (5 mM added one hour before or together with the virus) is “more than 90%”. Besides, the “inhibitory effect when added at 8 hours p.i.” value in the assay with HIV-1 Lai (CEM cells) was “almost no effect”. Moreover, in the assay with HIV-1 Lai (CEM cells, 1 hour incubation with virus, 5-10 μM), the “HIV entry monitored by intracellular concentration of p24” value is on record as “inhibited almost completely”. The “combined action with AZT against an HIV infection” value in the assay on HIV-1 Lai (CEM cells, HIV-1 Lai, p24 at 4 days p.i.) was “synergistic action”. In addition, the IC50 in the assay with HIV-1 Lai (CEM cells, construct added 15 min before HIV-1, p24 at 4 days p.i., read-out: Inhibition of HIV infection (IC50), 50% dose) came out at 500 nM; in the assay with HIV-1 JRCSF, 300 nM. The “inhibition of HIV-1 Lai infection in CEM cells” value in the assay with HIV-1 Lai (TASP 5 μM, p24 at 5 days p.i.) was “more than 95%”. For the same substance, in the assay with HIV-1 Lai (TASP 10 μM, mAb OKT4A 10 mg/ml), the “inhibition of virus infection” value was “complete inhibition”. The “higher activity compared to non-reduced counterpart 5[KPR]-TASP” value with HIV-1 Lai (both inhibition of HIV infection and affinity to bind the cell-surface ligand) is at least 10 fold. Besides, the “effect on SIVmac entry” value with SIVmac is “only a slight effect; also recorded: no significant effect”. Further, in the assay on HIV-1 Ada-M, the “effect on HIV-1 Ada-M entry” value is listed as “enhances”. In addition, the “ka (association rate constant)” value is “nb^b” on CD4 (listed as 5(KΨ(CH2N)PR)TASP) and “No binding” at CD4 (listed as 5[KΨ(CH2N)PR]-TASP).
